Results taken from patent publication US11578130B2, “Regulatable chimeric antigen receptor” (Novartis AG, priority 2013, dated 2023).

Assays:
[1] = target: biotinylated FKBP, FLAG FRB protein and everolimus; assay: AlphaLISA direct binding assay, FLAG FRB proteins with biotinylated FKBP and titrated everolimus; details: everolimus serial diluted from 600 nM; 30 nM biotinylated FKBP and each FLAG FRB protein
Protocol: FRB mutations were also ranked in an alternative assay format. Briefly, FRB proteins incorporating single and double mutations (SEQ ID NO: 319-323) were produced as FLAG tagged constructs in E. coli as described previously. 30 nM (final) of biotinylated FKBP (SEQ ID NO: 324) and each FLAG FRB protein were combined in the presence of everolimus serial diluted 1:3 from a starting final concentration of 600 nM into a 96 well ½ surface flat-bottom plate (PerkinElmer) and incubated for one hour at room temperature. All dilutions were made in 1× AlphaLISA Immunoassay buffer (PerkinElmer). Anti-Flag acceptor beads (PerkinElmer) were added at 10ug/ml final concentration and incubated for one hour at room temperature. Streptavidin donor beads (PerkinElmer), were then added at a final concentration of 40ug/ml and the plate was protected from light and incubated for 30 minutes at room temperature. The plate was then read on the PerkinElmer EnVision Multiplate reader equipped with the Alpha Module using excitation of 680 nm and a 570 nm Emission filter.

[2] = system: Jurkat cells with NFAT-LUC reporter (JNL); assay: Activation assay of redirected inhibitory RCAR (PD1 RCAR, FRB-FKBP switch) on PDL1-Fc; type: cell-based
Protocol: Jurkat cells with NFAT-LUC reporter (JNL) were grown to the density of 0.5×10^6/ml in Jurkat cell growth media with puromycin at 0.5 μg/ml. For each transfection 3×10^6 cells were spin down at 100 g for 10 minutes. Four μg DNA per construct were used per transfection. Amaxa Nucleofector solution V and supplement I was mixed and 100 μl was added into the tube with DNA construct. The mixture was then added to the cells and transferred to the electroporation cuvette. Electroporation was done under setting X-001 using Amaxa Nucleofector II Device. 0.5 ml of growth media was added immediately after electroporation and the mixture were transferred into 2 ml growth media in one well of the 6-well plate. After two hours, the rapalogue compound at various concentrations was added to cells. The cells were applied to tissue culture plate wells that were coated by the target. Tissue culture plate was coated with 5 μg/ml of PDL1-Fc or IgG1-Fc or any target for 2 hrs at 37° C., then blocked with the blocking buffer (DPBS with 5% serum) for 30 minutes. The transfected cells were added to the target plate with 100 μl per well and incubated further for 16 hrs. Luciferase One Glo reagent 100 μl was added per well. The samples were incubated for 5 min at 37° C. and then luminescence is measured using Envision plate reader. […]

[3] = target: mTOR (Homo sapiens, UniProt P42345); details: low concentration; cited from earlier work
[4] = system: PI3K/mTOR; details: relatively higher concentrations; cited from earlier work
[5] = system: JNL cells; assay: Single vector CD19 RCAR constructs in JNL cells, NFAT reporter activation by dimerization molecule; type: cell-based; details: nM to sub-nM doses
Source text: The constructs and viral particles were made and tested essentially as described in Example 11. Viral particles were introduced into JNL cells and evaluated for activity essentially as described in Example 1 except that the target was CD19 (as opposed to EGFRviii).
Construct 143775 was introduced into cells and the affect of dimerization molecule concentration on activation evaluated essentially as described in Example 14.

[6] = system: Jurkat cells with NFAT-LUC reporter (JNL); assay: NFAT activation assay, 9E10 anti-myc scFv RCAR with c-myc peptide multimers; type: cell-based; details: myc tags at 100 nM, 18 hr; compared with lower multimers
Protocol: Jurkat cells with NFAT-LUC reporter (JNL) were grown to the density of 0.5×10^6/ml in Jurkat cell growth media with puromycin at 0.5 μg/ml. For each transfection 2.5×10^6 cells were spin down at 100 g for 10 minutes. Two μg of DNA per construct were used per transfection. Amaxa Nucleofector solution V and supplement I was mixed and 100 μl was added into the tube with DNA construct. The mixture was then added to the cells and transferred to the electroporation cuvette. Electroporation was done under setting X-001 using Amaxa Nucleofector II Device. 0.5 ml of growth media was added immediately after electroporation and the mixture were transferred into 2 ml growth media in one well of the 6-well plate and incubated for two hours. For myc tags in solution, the cells were distributed into 96-wells, monomer, dimer, trimer or tetramer myc tags or IgG1 Fc were applied at 100 nM. The cells were incubated for 18 hr. Alternatively, tissue culture plate was coated with 100 nM of various myc tags or IgG1 Fc for two hours, blocked with the blocking buffer (DPBS with 5% serum) for 1 hour. The transfected cells were added to the target plate with 100 μl per well and incubated for 18 hrs. Luciferase One Glo reagent 100 μl was added per well. The samples were incubated for 5 min at 37° C. and then luminescence is measured using Envision plate reader.

Molecule: Wild type FRB: His-FRB SEQ ID NO: 312 in competition assay; His-FLAG-FRB SEQ ID NO: 318 in direct binding assay
- EC50 [1]: 3.9 nM

Molecule: CO[C@H]1[C@@H](O)[C@H](C)C[C@H](C)/C=C/C=C/C=C(\C)[C@@H](c2c[nH]c3c(C)cccc23)C[C@@H]2CC[C@@H](C)[C@@](O)(O2)C(=O)C(=O)N2CCCC[C@H]2C(=O)O[C@H]([C@H](C)C[C@@H]2CC[C@@H](O)[C@H](OC)C2)C[C@H](O)[C@H](C)/C=C(\C)[C@H]1O [AP21967]
- induction of NFAT signaling by PDL-1 target ([2]; PD1 RCAR (PD1-ECD-TM-FRB and FKBP-4 1BB-CD3 zeta), 500 nM AP21967): significant induction of signaling
- potency in inducing dimerization of the heterodimerization switch, activation of NFAT signaling ([2]; PD1 RCAR, varying concentrations of AP21967, dose response): potent even at sub nM concentration

Molecule: Cn1c(=O)n(-c2ccc(C(C)(C)C#N)cc2)c2c3cc(-c4cnc5ccccc5c4)ccc3ncc21 [BEZ235, 2-methyl-2-[4-(3-methyl-2-oxo-8-quinolin-3-yl-2,3-dihydro-imidazo[4,5-c]quinolin-1-yl)-phenyl]-propionitrile]
- concentration at which mTOR inhibition predominates [3]: less than 100 nmol/L
- concentration of dual PI3K/mTOR inhibition [4]: approximately 500 nmol/L

Molecule: T2098L: FRB point mutant; SEQ ID NO: 315 (competition assay), SEQ ID NO: 321 (direct binding assay)
- EC50 [1]: 1.44 nM

Molecule: E2032L: FRB point mutant; SEQ ID NO: 314 (competition assay), SEQ ID NO: 320 (direct binding assay)
- EC50 [1]: 2.15 nM

Molecule: CO[C@H]1C[C@@H]2CC[C@@H](C)[C@@](O)(O2)C(=O)C(=O)N2CCCC[C@H]2C(=O)O[C@H]([C@H](C)C[C@@H]2CC[C@@H](O)[C@H](OC)C2)CC(=O)[C@H](C)/C=C(\C)[C@@H](O)[C@@H](OC)C(=O)[C@H](C)C[C@H](C)/C=C/C=C/C=C/1C [rapamycin]
- activation of RCAR (Construct 143775) over dimerization molecule concentration [5]: effective at a broad range of concentrations

Molecule: E2032I: FRB point mutant; SEQ ID NO: 313 (competition assay), SEQ ID NO: 319 (direct binding assay)
- EC50 [1]: 2.46 nM

B1: EEQKLISEEDLGGGGSGGGGSGGGGSEEQKLISEEDLGGGGSGGGGSGGGGSEEQKLISEEDLGGGGSGGGGSGGGGSEEQKLISEEDL (peptide)
chain: EEQKLISEEDLGGGGSGGGGSGGGGSEEQKLISEEDLGGGGSGGGGSGGGGSEEQKLISEEDLGGGGSGGGGSGGGGSEEQKLISEEDL
- NFAT activation by myc tag multimers [6]: Higher NFAT activation

B2: EEQKLISEEDLGGGGSGGGGSGGGGSEEQKLISEEDLGGGGSGGGGSGGGGSEEQKLISEEDL (peptide)
chain: EEQKLISEEDLGGGGSGGGGSGGGGSEEQKLISEEDLGGGGSGGGGSGGGGSEEQKLISEEDL
- NFAT activation by myc tag multimers [6]: Higher NFAT activation
